According to PubChem BioAssay (NCI):
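Growth conditions: 96-well plates. Treatment: test compound, 48 hours, 5 concentrations. Analysis: linear interpolation between bracketing concentrations; unreached endpoints set to highest concentration. GI50 marks 50% less growth. TGI: total growth inhibition.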

Legend:
Test in all cases: NCI tumour cell line growth inhibition, 48 h
[1] = tested on: NCI-H226 lung
[2] = tested on: NCI-H23 lung
[3] = tested on: NCI-H460 lung
[4] = tested on: NCI-H522 lung
[5] = tested on: NCI/ADR-RES ovarian
[6] = tested on: OVCAR-4 ovarian
[7] = tested on: OVCAR-5 ovarian
[8] = tested on: OVCAR-8 ovarian
[9] = tested on: PC-3 prostate
[10] = tested on: RPMI-8226 leukemia
[11] = tested on: RXF 393 renal
[12] = tested on: SF-268 CNS
[13] = tested on: SF-295 CNS
[14] = tested on: SF-539 CNS
[15] = tested on: SK-MEL-2 melanoma
[16] = tested on: SK-MEL-28 melanoma
[17] = tested on: SK-MEL-5 melanoma
[18] = tested on: SK-OV-3 ovarian
[19] = tested on: SN12C renal
[20] = tested on: SNB-19 CNS
[21] = tested on: SNB-75 CNS
[22] = tested on: SR leukemia
[23] = tested on: SW-620 colon
[24] = tested on: T-47D breast
[25] = tested on: TK-10 renal
[26] = tested on: U251 CNS
[27] = tested on: UACC-257 melanoma
[28] = tested on: UACC-62 melanoma
[29] = tested on: UO-31 renal

Compound: O=C(O)c1ccc(-n2c(=O)n(-c3cccc(C(F)(F)F)c3)c(=O)c3cc(-c4ccc(F)cc4F)ccc32)cc1
- TGI [1]: 4800 nM
- GI50 [2]: 1560 nM
- TGI [2]: 5880 nM
- GI50 [3]: 1580 nM
- TGI [3]: 8210 nM
- GI50 [4]: 576 nM
- TGI [4]: 3980 nM
- GI50 [5]: 2630 nM
- TGI [5]: 15200 nM
- GI50 [6]: 2820 nM
- TGI [6]: 35000 nM
- GI50 [7]: 3610 nM
- TGI [7]: 28500 nM
- GI50 [8]: 2030 nM
- TGI [8]: 8430 nM
- GI50 [9]: 2860 nM
- TGI [9]: 8760 nM
- GI50 [10]: 1700 nM
- TGI [10]: 7050 nM
- GI50 [11]: 1480 nM
- TGI [11]: 3470 nM
- GI50 [12]: 2370 nM
- TGI [12]: 15000 nM
- GI50 [13]: 1820 nM
- TGI [13]: 3820 nM
- GI50 [14]: 2200 nM
- TGI [14]: 8170 nM
- GI50 [15]: 1040 nM
- TGI [15]: 2910 nM
- GI50 [16]: 1850 nM
- TGI [16]: 6790 nM
- GI50 [17]: 490 nM
- TGI [17]: 1880 nM
- GI50 [18]: 1450 nM
- TGI [18]: 4120 nM
- GI50 [19]: 1910 nM
- TGI [19]: 8290 nM
- GI50 [20]: 2030 nM
- TGI [20]: 31100 nM
- GI50 [21]: 1930 nM
- TGI [21]: 7020 nM
- GI50 [22]: 555 nM
- TGI [22]: 4070 nM
- GI50 [23]: 2030 nM
- TGI [23]: 4960 nM
- GI50 [24]: 1790 nM
- TGI [24]: 6210 nM
- GI50 [25]: 3860 nM
- TGI [25]: 8400 nM
- GI50 [26]: 2060 nM
- TGI [26]: 10700 nM
- GI50 [27]: 1600 nM
- TGI [27]: 4960 nM
- GI50 [28]: 582 nM
- TGI [28]: 2510 nM
- GI50 [29]: 2540 nM
- TGI [29]: 9570 nM
